What was measured:
Assay type in all cases: functional
NCI-H226 = assay: Growth inhibition of human NCI-H226 cells at 10 uM after 48 hrs by sulforhodamine B assay; conditions: NCI-H226, 48 h, values are per cent of control
T47D = assay: Growth inhibition of human T47D cells at 10 uM after 48 hrs by sulforhodamine B assay; conditions: values are per cent of control
SR = assay: Growth inhibition of human SR cells at 10 uM after 48 hrs by sulforhodamine B assay; conditions: values are per cent of control
PC-3 = assay: Growth inhibition of human PC3 cells at 10 uM after 48 hrs by sulforhodamine B assay; conditions: PC-3, 48 h, values are per cent of control
M14 = assay: Growth inhibition of human M14 cells at 10 uM after 48 hrs by sulforhodamine B assay; conditions: M14, 48 h, values are per cent of control
UACC-257 = assay: Growth inhibition of human UACC257 cells at 10 uM after 48 hrs by sulforhodamine B assay; conditions: UACC-257, 48 h, values are per cent of control
SK-MEL-2 = assay: Growth inhibition of human SK-MEL-2 cells at 10 uM after 48 hrs by sulforhodamine B assay; conditions: SK-MEL-2, 48 h, read-out: GI
OVCAR-5 = assay: Growth inhibition of human OVCAR5 cells at 10 uM after 48 hrs by sulforhodamine B assay; conditions: OVCAR-5, 48 h, values are per cent of control
Rattus norvegicus [1] = assay: Antiinflammatory activity against carrageenan-induced paw edema in Wister albino rat assessed as inhibition of edema at 50 mg/kg, ip administered 1 hr prior to carrageenan challenge measured after 4 hrs relative to control; conditions: route intraperitoneal
Rattus norvegicus [2] = assay: Antiinflammatory activity against carrageenan-induced paw edema in Wister albino rat assessed as inhibition of edema at 50 mg/kg, ip administered 1 hr prior to carrageenan challenge measured after 3 hrs relative to control; conditions: route intraperitoneal
BT-549 = assay: Growth inhibition of human BT549 cells at 10 uM after 48 hrs by sulforhodamine B assay; conditions: BT-549, 48 h, values are per cent of control
OVCAR-3 = assay: Growth inhibition of human OVCAR-3 cells at 10 uM after 48 hrs by sulforhodamine B assay; conditions: OVCAR-3, 48 h, values are per cent of control
SNB-75 = assay: Growth inhibition of human SNB75 cells at 10 uM after 48 hrs by sulforhodamine B assay; conditions: SNB-75, 48 h, values are per cent of control
SF-295 = assay: Growth inhibition of human SF295 cells at 10 uM after 48 hrs by sulforhodamine B assay; conditions: SF-295, 48 h, values are per cent of control
CAKI-1 = assay: Growth inhibition of human Caki1 cells at 10 uM after 48 hrs by sulforhodamine B assay; conditions: CAKI-1, 48 h, values are per cent of control
U-251 = assay: Growth inhibition of human U251 cells at 10 uM after 48 hrs by sulforhodamine B assay; conditions: U-251, 48 h, values are per cent of control
NCI-H322M = assay: Growth inhibition of human NCI-H322M cells at 10 uM after 48 hrs by sulforhodamine B assay; conditions: values are per cent of control
EKVX = assay: Growth inhibition of human EKVX cells at 10 uM after 48 hrs by sulforhodamine B assay; conditions: values are per cent of control
HCT-116 = assay: Growth inhibition of human HCT116 cells at 10 uM after 48 hrs by sulforhodamine B assay; conditions: HCT-116, 48 h, values are per cent of control
NCI-H522 = assay: Growth inhibition of human NCI-H522 cells at 10 uM after 48 hrs by sulforhodamine B assay; conditions: NCI-H522, 48 h, values are per cent of control
786-0 = assay: Growth inhibition of human 786-0 cells at 10 uM after 48 hrs by sulforhodamine B assay; conditions: 786-0, 48 h, values are per cent of control
Malme-3M = assay: Growth inhibition of human MALME-3M cells at 10 uM after 48 hrs by sulforhodamine B assay; conditions: values are per cent of control
HL-60(TB) = assay: Growth inhibition of human HL-60(TB) cells at 10 uM after 48 hrs by sulforhodamine B assay; conditions: HL-60, 48 h, read-out: GI

| SMILES | growth, % of control at 10 µM (NCI-H226) [%] | growth, % of control at 10 µM (T47D) [%] | growth, % of control at 10 µM (SR) [%] | growth, % of control at 10 µM (PC-3) [%] | growth, % of control at 10 µM (M14) [%] | growth, % of control at 10 µM (UACC-257) [%] | inhibition of growth at 10 µM (SK-MEL-2) [%] | growth, % of control at 10 µM (OVCAR-5) [%] | inhibition in vivo at 50 mg/kg (Rattus norvegicus [1]) [%] | inhibition in vivo at 50 mg/kg (Rattus norvegicus [2]) [%] | growth, % of control at 10 µM (BT-549) [%] | growth, % of control at 10 µM (OVCAR-3) [%] | growth, % of control at 10 µM (SNB-75) [%] | growth, % of control at 10 µM (SF-295) [%] | growth, % of control at 10 µM (CAKI-1) [%] | growth, % of control at 10 µM (U-251) [%] | growth, % of control at 10 µM (NCI-H322M) [%] | growth, % of control at 10 µM (EKVX) [%] | growth, % of control at 10 µM (HCT-116) [%] | growth, % of control at 10 µM (NCI-H522) [%] | further results |
| --- | --- | --- | --- | --- | --- | --- | --- | --- | --- | --- | --- | --- | --- | --- | --- | --- | --- | --- | --- | --- | --- |
| [3H]C([3H])([3H])N1C(=O)[C@@]2(c3ccccc31)N(C)C[C@@H](c1cccs1)[C@@]21Cc2ccccc2C1=O | 85.7 | 101 | 72.5 | 70.3 | 104 | 52.6 | -5.11 | 102 | 12.9 | 9.1 | 131 | 100 | 79 | 60.4 | 106 | 102 | 89.3 | 107 | 108 | 94.9 | growth, % of control at 10 µM (786-0): 106%; growth, % of control at 10 µM (Malme-3M): 123%; growth, % of control at 10 µM (HL-60(TB)): 70% |
| [3H]N1C(=O)[C@@]2(c3ccccc31)N(C)C[C@@H](c1ccc(Cl)cc1)[C@@]21Cc2ccccc2C1=O | 73.7 | 81.8 | 167 | 36.5 | 82.9 | 34.5 | -6.14 | 93.2 | 15.6 | 18.9 | 121 | 78.6 | 61.1 | 31.4 | 80 | 87.7 | 104 | 52.5 | 54.6 | 73.9 | growth, % of control at 10 µM (786-0): 88.9%; growth, % of control at 10 µM (Malme-3M): 120%; growth, % of control at 10 µM (HL-60(TB)): 76.7% |
| [3H]C([3H])([3H])N1C(=O)[C@@]2(c3ccccc31)N(C)C[C@@H](c1ccc(Cl)cc1)[C@@]21Cc2ccccc2C1=O | 63.2 | 75.8 | 51.4 | 38.3 | 76.6 | 42.6 | -11.1 | 95.4 | 8.5 | 9.4 | 111 | 69.3 | 75.3 | 65 | 71.8 | 93.1 | 106 | 72.6 | 24.3 | 77.3 | growth, % of control at 10 µM (786-0): 86.2%; growth, % of control at 10 µM (Malme-3M): 102% |
| [3H]C([3H])([3H])N1C(=O)[C@@]2(c3ccccc31)N(C)C[C@@H](c1ccc(OC)cc1)[C@@]21Cc2ccccc2C1=O | 78.7 | 93.3 | 125 | 58.4 | 94.1 | 88.7 | -6.92 | 97.7 | 3.8 | 3.3 | 101 | 92.5 | 79 | 89.1 | 91.1 | 88.4 | 124 | 67.3 | 59.8 | 87 | growth, % of control at 10 µM (786-0): 88%; growth, % of control at 10 µM (Malme-3M): 104%; growth, % of control at 10 µM (HL-60(TB)): 170% |
| [3H]N1C(=O)[C@@]2(c3ccccc31)N(C)C[C@@H](c1ccc(OC)cc1)[C@@]21Cc2ccccc2C1=O | 85.9 | 97.5 | 140 | 66 | 97.5 | 99.3 | 8.7 | 106 | 21.8 | 20.5 | 118 | 98.5 | 102 | 103 | 85.7 | 96.7 | 111 | 92.4 | 92.6 | 91 | growth, % of control at 10 µM (786-0): 102%; growth, % of control at 10 µM (Malme-3M): 132%; growth, % of control at 10 µM (HL-60(TB)): 72.8% |
| [3H]N1C(=O)[C@@]2(c3ccccc31)N(C)C[C@@H](c1cccs1)[C@@]21Cc2ccccc2C1=O | 96.2 | 96 | 60.3 | 73 | 103 | 65 | 6.58 | 98.8 | 20 | 32.6 | 119 | 95.6 | 81 | 105 | 106 | 100 | 98.9 | 97.5 | 92.2 | 92.3 | growth, % of control at 10 µM (786-0): 111%; growth, % of control at 10 µM (Malme-3M): 93.5%; growth, % of control at 10 µM (HL-60(TB)): 89.7% |

Reference: ChEMBL document CHEMBL1152855, “Regioselective synthesis of dispiro[1H-indene-2,3'-pyrrolidine-2',3''-[3H]indole]-1,2''(1''H)-diones of potential anti-tumor properties” (2009)
